Data reported in patent US5132309A, “2-oxo-3,8-diazaspiro(4,5)decane derivatives, pharmaceutical compositions containing them and process for preparing same” (Richter Gedeon Vegyeszeti Gyar RT, priority 1989, dated 1992).
Where two headings read alike, the source gives them in different places.

Assays:
[1] = system: apomorphine-induced locomotor hyperactivity and stereotypy; test: Inhibition of the apomorphine-induced locomotor hyperactivity and stereotypy; type: in vivo, male Hannover-Wistar rats; conditions: rat, 2.5 mg/kg oral; for Inhibition of apomorphine-induced LMA as percentage of the control / Inhibition of apomorphine-induced stereotypy as percentage of the control: apomorphine hydrochloride 1 mg/kg s.c.; for Inhibition of apomorphine-induced LMA as percentage of the control: control LMA 100% (438.9 ± 54.7 sec); for Inhibition of apomorphine-induced stereotypy as percentage of the control: control stereotypy 100% (105.0 ± 13.7 sec)
From the text: Apomorphine induces a characteristic syndrome in rats and various animal species which manifests itself in the hyperactivity and stereotypic behavior of the animals [J. Pharm. Pharmacol. 19 627 (1957); J. Neurol. Transm. 40, 97 (1977); J. Psychiat. Res. 11, 1 (1974); J. Pharm. Pharmacol. 25, 1003 (1973); as well as Nature 263, 338 (1976)].
Male Hannover-Wistar rats weighing 160 to 180 g were used in these examinations. The test compounds were suspended in a 2% Tween 80 solution and diluted to the desired concentration by adding distilled water. The corresponding dose was administered to rats in a volume of 5 ml/kg. The control group was treated with the above solution containing no test substance.
One hour following the treatment with 2.5 mg/kg oral dose of the test compound, the rats were subcutaneously treated with 1 mg/kg of apomorphine hydrochloride.
At 15 minutes after administration of apomorphine, the animals were placed in a 5-channel behavior-observing device controlled by a microprocessor and the coordinated and stereotypic motion of the animals were measured for 15 minutes. Chlozapine (chemically 8-chloro-11-(4-methyl-1-piperazinyl)-5H-dibenzo[b,e][1,4]diazepine) was used in a dose of 2.5 mg/kg as reference drug. The results are given as percentages of the control for both motion types.

[2] = Cataleptogenic (catalepsy-inducing) effect; design: species or system male Wistar rats; conditions: in vivo; rat; oral; hourly for 6 hours
hypoxic memory damage = test: Inhibition of the hypoxic damage of the memory (nootropic effect), conditioned avoidance in Shuttle-box; type: in vivo, male spontaneously (genetically) hypertensive rats; conditions: rat, hypoxia 6% oxygen
From the text: Male, spontaneously (genetically) hypertensive rats weighing 210 to 230 g were used in these examinations. The active avoiding behavior was developed in a 6-channel automated Shuttle-box by a training consisting of 30 cycles during 3 days. Within a single cycle an intermittent light stimulus of 1 Hz frequency for 15 seconds as conditioned stimulus and an electric stimulus of 0.8 mA for 10 seconds as unconditioned stimulus were used with an intersignal time of 15 seconds.
On the 4th day, one hour before the experiment the animals were treated with a 10 mg/kg oral dose of the test compounds. Two control groups were used in these examinations, one of which was treated with placebo whereas the other one was treated with placebo and exposed to hypoxia. Piracetam (chemically 2-oxo-1-pyrrolidineacetic acid amide) and dihydroergotoxine were used as reference drugs. The performance of the animals was examined under hypoxic conditions in such a way that the boxes were flown through at a rate of 200 ml/min/box with a gaseous mixture containing 6% by volume of oxygen and 94% by volume of nitrogen. The number of the conditioned avoidance responses (as abbreviated hereinafter: CAR) was counted. The protective effect of the compounds against the hypoxic memory damage was calculated by using the following formula: [formula] wherein
protective effect means the effect inhibiting the hypoxic memory damage expressed as percentage; and
CAR x means the average value of the number of conditioned responses in the animal group given.
The protective effect of the compounds against the hypoxic memory damage expressed as percentage of the control is shown in Table 2.

hypobaric hypoxia = test: Inhibition of the hypobaric hypoxia (survival time); type: in vivo, male spontaneously hypertensive rats; conditions: for ED50: po, 1 h, read-out: Protection against hypobaric hypoxia, ED50
Method: Male, spontaneously hypertensive rats weighing 200 to 220 g were used in these investigations. Groups consisting of 3 animals each were placed into a desiccator of 6 liters by volume, the pressure was decreased to 170 Hgmm (22.66 kPa) within 20 seconds and continuously maintained at the same level. One hour before the examination, the animals were treated with various oral doses of the test compounds. The ED50 values (i.e. the doses prolonging the survival time of the test animals by 50% in comparison to that of the control group treated with placebo) were determined and summarized in Table 3.

[3] = system: triethyl tin chloride-induced cerebral edema; test: Inhibition of the cerebral (brain) edema induced by triethyl tin chloride; type: in vivo, male Hannover-Wistar rats; conditions: rat, TET 2.5 mg/kg daily for 5 days
Method: The cerebral edema-inhibiting effect of the compounds was investigated by the following method [Ann. Pharm. Fr. 42, 431 (1984)].
A group consisting of 7 male Hannover-Wistar rats weighing 180 to 200 g were daily treated with 2.5 mg/kg of triethyl tin chloride (hereinafter TET) for 5 days to induce a cerebral edema. [TET (Merck-Schuchardt, Darmstadt, FRG) was dissolved in distilled water under stirring and the animals were orally treated with the stirred solution daily at 7 a.m.].
The reference and test compounds were homogenized in a 0.5% by weight carboxymethylcellulose solution by using an Ultra Turrax stirrer and the stirring was continued during the administration, too. These compounds were orally given first 1 hour, then 6 hours after the TET treatment in a volume of 0.5 ml/100 g of body-weight in both cases. The control group received the solvent of TET (i.e. distilled water) and the carrier of the compounds (i.e. 0.5% by weight carboxymethylcellulose solution) at the same intervals and volumes as given above.
On the 5th day of treatments, 2 hours following the last administration of the test compound, the animals were decapitated, the whole brain was rapidly taken out, washed with cold, 0.9% by weight sodium chloride solution and the moisture was removed by filter paper. The wet weights of the brains were weighed with an accuracy of one tenth mg and placed onto an aluminum foil previously weighed. Subsequently, the brains were dried at 90° C. for 92 hours, then the total (gross) weight (i.e. the dry brain weight together with the weight of the aluminum foil) was determined. The water content of the brain and the change thereof, respectively, were calculated from the difference of the wet and dry brain weight. The change was expressed as percentage of the protection as follows: [formula] wherein (TET-Ko) means the mean water content (%) of the brain of animals treated with TET and carrier;
(TET-V) means the mean water content (%) of the brain of animals treated with TET and test compound;
(Veh-Ko) means the mean water content (%) of the brain of animals treated with distilled water and carrier.
The deviations of changes in the water content and dry weight of the brain were compared by using Student's "t" trial. Also here, piracetam and dihydroergotoxine were used as reference drugs.

Compound	Inhibition of apomorphine-induced LMA as percentage of the control [1]	Inhibition of apomorphine-induced stereotypy as percentage of the control [1]	ED50 at 6 h [2]	Protection (brain water content, cerebral edema) ([3]; dose 100 umol/kg oral)	also measured
CN1C(=O)OC2(CCN(CCC=C(c3ccc(F)cc3)c3ccc(F)cc3)CC2)C1(C)O.Cl (stereo not drawn) [A, 8-[4,4-bis(4-fluorophenyl)-3-butenyl]-3,4-dimethyl-4-hydroxy-2-oxo-1-oxa-3,8-diazaspiro[4,5]decane hydrochloride]	-40 percentage of the control	0 percentage of the control	> 300 mg/kg	–	–
CC1(O)N(Cc2ccccc2)C(=O)OC12CCN(CCC=C(c1ccc(F)cc1)c1ccc(F)cc1)CC2.Cl (stereo not drawn) [B, 3-benzyl-8-[4,4-bis(4-fluorophenyl)-3-butenyl]-4-hydroxy-4-methyl-2-oxo-1-oxa-3,8-diazaspiro[4,5]decane hydrochloride]	-25 percentage of the control	+15 percentage of the control	> 300 mg/kg	–	–
CC(C)(C)N1C(=O)OC2(CCN(CCC=C(c3ccc(F)cc3)c3ccc(F)cc3)CC2)C1(C)O.Cl (stereo not drawn) [C, 3-tert-butyl-8-[4,4-bis(4-fluorophenyl)-3-butenyl]-4-hydroxy-4-methyl-2-oxo-1-oxa-3,8-diazaspiro[4,5]decane hydrochloride]	–	–	–	88.1%	Protection against amnesia (hypoxic memory damage; 10 mg/kg p.o.): 64%; ED50 (hypobaric hypoxia; rat, 170 Hgmm, dose prolonging survival time by 50% vs placebo control): 23.7 mg/kg; Protection (brain water content, cerebral edema) ([3]; dose 25 umol/kg oral): 97.9%; Protection (brain water content, cerebral edema) ([3]; dose 50 umol/kg oral): 102.0%
CN1CCN(C2=Nc3cc(Cl)ccc3Nc3ccccc32)CC1 [Clozapine, 8-chloro-11-(4-methyl-1-piperazinyl)-5H-dibenzo[b,e][1,4]diazepine, reference compound]	-25 percentage of the control	+11 percentage of the control	31.9 mg/kg	–	inhibition of stereotypy (in words) [1]: did not inhibit the stereotypy
COc1ccc(CCN2C(=O)OC3(CCN(CCC=C(c4ccc(F)cc4)c4ccc(F)cc4)CC3)C2(C)O)cc1OC.O=C(O)/C=C\C(=O)O (stereo not drawn) [D, 8-[4,4-bis(4-fluorophenyl)-3-butenyl]-3-[2-(3,4-dimethoxyphenyl)ethyl]-4-hydroxy-4-methyl-2-oxo-1-oxa-3,8-diazaspiro[4,5]decane maleate]	–	–	–	102.2%	–
CC1(O)NC(=O)OC12CCN(CCC=C(c1ccc(F)cc1)c1ccc(F)cc1)CC2.Cl (stereo not drawn) [E, 8-[4,4-bis(4-fluorophenyl)-3-butenyl]-4-hydroxy-4-methyl-2-oxo-1-oxa-3,8-diazaspiro[4,5]decane hydrochloride]	–	–	–	114.3%	–
NC(=O)CN1CCCC1=O [PIR, 2-oxo-1-pyrrolidineacetic acid amide]	–	–	–	16.7%	Protection against amnesia (hypoxic memory damage; 500 mg/kg p.o.): 85%; ED50 (hypobaric hypoxia; Rattus norvegicus): 293 mg/kg
dihydroergotoxine [DHE]	–	–	–	–	Protection against amnesia (hypoxic memory damage; 10 mg/kg p.o.): 63%; survival achieved at the high dose of DHE (hypobaric hypoxia; rat, 50.0 mg/kg p.o., hypobaric hypoxia): 40%; Protection against hypobaric hypoxia, ED50 (hypobaric hypoxia; rat, 170 Hgmm, dose prolonging survival time by 50% vs placebo control, 60 min): 50.0 mg/kg p.o.; Protection (brain water content, cerebral edema) ([3]; dose 30 mg/kg oral): 25.6%
